Data: ChEMBL document CHEMBL4422644, “Synthesis and evaluation of α-aminoacyl amides as antitubercular agents effective on drug resistant tuberculosis” (Eur J Med Chem, 2019)
pIC50: −log10 of the molar value. Converted amounts (≈) assume the structure as drawn.

What was measured:
A549 = assay: Cytotoxicity against human A549 cells after 24 hrs by MTT assay; format: functional, cell-based; settings: A549, 24 h
[1] = Selectivity index, ratio of IC50 for HEK cells to MIC for Mycobacterium tuberculosis H37Rv; format: toxicity; settings: human, read-out: Selectivity Index
Pseudomonas aeruginosa = assay: Antibacterial activity against Pseudomonas aeruginosa ATCC 27853 after 24 hrs; format: functional; settings: ATCC 27853, 24 h
Klebsiella pneumoniae = assay: Antibacterial activity against Klebsiella pneumoniae ATCC BAA-1705 after 24 hrs; format: functional; settings: ATCC BAA-1705, 24 h
DU-145 = assay: Cytotoxicity against human DU145 cells after 24 hrs by MTT assay; format: functional, cell-based; settings: DU-145, 24 h
[2] = system: Mycolicibacterium fortuitum; assay: Antibacterial activity against Mycobacterium fortuitum after 7 days by alamar blue assay; format: functional; settings: 168 h
CHO-K1 = assay: Cytotoxicity against CHOK1 cells after 24 hrs by MTT assay; format: cell-based; settings: Cricetulus griseus, CHO-K1, 24 h
[3] = system: Mycobacteroides abscessus; assay: Antibacterial activity against Mycobacterium abscessus after 7 days by alamar blue assay; format: functional; settings: 168 h
[4] = Cytotoxicity against HEK cells after 24 hrs by MTT assay; format: cell-based; settings: Homo sapiens, HEK293, 24 h
Acinetobacter baumannii = assay: Antibacterial activity against Acinetobacter baumannii ATCC BAA-1605 after 24 hrs; format: functional; settings: ATCC BAA-1605, 24 h
[5] = Cytotoxicity against […] B16 cells after 24 hrs by MTT assay; format: functional, cell-based; settings: B16, 24 h
[6] = Selectivity index, ratio of IC50 for CHOK1 cells to MIC for Mycobacterium tuberculosis H37Rv; format: toxicity; settings: hamster, read-out: Selectivity Index
[7] = system: Mycobacterium tuberculosis; assay: Antitubercular activity against Mycobacterium tuberculosis H37Rv after 7 days by alamar blue assay; format: functional; settings: 168 h
MCF7 = assay: Cytotoxicity against human MCF7 cells after 24 hrs by MTT assay; format: functional, cell-based; settings: MCF7, 24 h
Staphylococcus aureus = assay: Antibacterial activity against Staphylococcus aureus ATCC 29213 after 24 hrs; format: functional; settings: ATCC 29213, 24 h
HeLa = assay: Cytotoxicity against human HeLa cells after 24 hrs by MTT assay; format: functional, cell-based
HepG2 = assay: Cytotoxicity against human HepG2 cells after 24 hrs by MTT assay; format: functional, cell-based; settings: HepG2, 24 h
Mycobacteroides chelonae = assay: Antibacterial activity against Mycobacterium chelonae after 7 days by alamar blue assay; format: functional; settings: 168 h
Escherichia coli = assay: Antibacterial activity against Escherichia coli ATCC 25922 after 24 hrs; format: functional; settings: ATCC 25922, 24 h

| SMILES | pIC50 (A549) | selectivity ratio [1] | MIC (Pseudomonas aeruginosa) [µM] | MIC (Klebsiella pneumoniae) [µM] | pIC50 (DU-145) | MIC [2] [µM] | pIC50 (CHO-K1) | MIC [3] [µM] | pIC50 [4] | MIC (Acinetobacter baumannii) [µM] | pIC50 [5] | selectivity ratio [6] | MIC [7] [µM] | pIC50 (MCF7) | MIC (Staphylococcus aureus) [µM] | pIC50 (HeLa) | pIC50 (HepG2) | MIC (Mycobacteroides chelonae) [µM] | MIC (Escherichia coli) [µM] |
| --- | --- | --- | --- | --- | --- | --- | --- | --- | --- | --- | --- | --- | --- | --- | --- | --- | --- | --- | --- |
| Cc1cccc(N(C(=O)c2c(C)noc2C)C(C(=O)NC2CCCCC2)c2ccccc2)c1C (stereo not given) | 5.07 | 31.3 | > 50 | > 50 | 5.00 | > 50 | 4.32 | > 50 | 4.01 | > 50 | 4.56 | 15.1 | 3.12 (≈ 1.43 µg/mL) | 5.52 | > 50 | 5.06 | 4.98 | > 50 | > 50 |
| Cc1ccc(N(C(=O)c2sc(C)nc2C)C(C(=O)NC2CCCCC2)c2cccnc2)cc1 (stereo not given) | 4.93 | 18.9 | > 50 | > 50 | 4.78 | > 50 | 3.79 | > 50 | 4.23 | > 50 | 4.75 | 51.6 | 3.12 (≈ 1.44 µg/mL) | 5.22 | > 50 | 5.04 | 5.17 | > 50 | > 50 |
| Cc1ccc(N(C(=O)c2sc(C)nc2C)C(C(=O)NC2CCCCC2)c2ccccc2)cc1 (stereo not given) | 5.83 |  | > 50 | > 50 | 4.85 | > 50 | 4.75 | > 50 | 4.43 | > 50 | 4.86 | 10.9 | 1.56 (≈ 0.72 µg/mL) | 5.43 | > 50 | 4.97 | 4.93 | > 50 | > 50 |
| Cc1cccc(N(C(=O)c2cccs2)C(C(=O)NC2CCCCC2)c2ccccc2)c1C (stereo not given) | 4.75 |  | > 50 | > 50 | 5.04 | > 50 | 4.42 | > 50 | 4.64 | > 50 | 4.84 | 12.2 | 3.12 (≈ 1.39 µg/mL) | 4.77 | > 50 | 4.90 | 5.02 | > 50 | > 50 |
| Cc1ccc(N(C(=O)c2sc(C)nc2C)C(C(=O)NC2CCCCC2)c2ccccc2)c(C)c1 (stereo not given) | 5.06 |  | > 50 | > 50 | 4.94 | > 50 | 4.37 | > 50 | 4.33 | > 50 | 4.53 | 3.4 | 12.5 (≈ 5.95 µg/mL) | 4.93 | > 50 | 5.03 | 4.90 | > 50 | > 50 |
| Cc1nc(C)c(C(=O)N(c2cccc(C)c2C)C(C(=O)NC2CCCCC2)c2ccc(Cl)cc2)s1 (stereo not given) | 5.04 |  | > 50 | > 50 | 5.07 | > 50 | 4.94 | > 50 | 4.04 | > 50 | 4.68 | 3.5 | 3.12 (≈ 1.59 µg/mL) | 5.38 | > 50 | 4.86 | 5.21 | > 50 | > 50 |
| Cc1ccc(N(C(=O)c2sc(C)nc2C)C(C(=O)NC2CCCCC2)c2c(F)cc(Br)cc2F)cc1 (stereo not given) | 4.93 |  | > 50 | > 50 | 4.90 | > 50 | 4.27 | > 50 | 4.23 | > 50 | 4.97 | 8.5 | 6.25 (≈ 3.6 µg/mL) | 5.39 | > 50 | 4.65 | 5.32 | > 50 | > 50 |
| Cc1cccc(N(C(=O)c2c(C)noc2C)C(C(=O)NC2CCCCC2)c2cccnc2)c1C (stereo not given) | 4.89 |  | > 50 | > 50 | 4.92 | > 50 | 3.86 | > 50 | 4.11 | > 50 | 4.49 | 21.7 | 6.25 (≈ 2.88 µg/mL) | 5.18 | > 50 | 4.85 | 4.93 | > 50 | > 50 |
| Cc1cccc(N(C(=O)c2ccncc2)C(C(=O)NC2CCCCC2)c2cccnc2)c1C (stereo not given) | 4.93 |  | > 50 | > 50 | 4.69 | > 50 | 3.77 | > 50 | 4.07 | > 50 | 4.70 | 11.3 | 3.12 (≈ 1.38 µg/mL) | 5.21 | > 50 | 4.95 | 4.89 | > 50 | > 50 |
| Cc1ccc(N(C(=O)c2ccc[nH]2)C(C(=O)NC2CCCCC2)c2cccnc2)cc1 (stereo not given) | 4.82 |  | > 50 | > 50 | 4.81 | > 50 | 3.87 | > 50 | 3.92 | > 50 | 4.73 | 10.7 | 12.5 (≈ 5.21 µg/mL) | 5.25 | > 50 | 4.92 | 4.94 | > 50 | > 50 |
| Cc1cccc(N(C(=O)c2ccc[nH]2)C(C(=O)NC2CCCCC2)c2cccnc2)c1C (stereo not given) | 4.76 |  | > 50 | > 50 | 4.90 | > 50 | 3.57 | > 50 | 4.27 | > 50 | 4.86 | 21.4 | 12.5 (≈ 5.38 µg/mL) | 5.26 | > 50 | 5.00 | 5.02 | > 50 | > 50 |
